Test results reported in patent publication US20240002326A1, “COMPOUNDS AND USE THEREOF IN METHODS OF TREATMENT” (The University of Queensland, priority 2016, published 2024).

Assays:
[1] = Cytotoxicity assay (Alamar blue), HepG2; type: cell-based; conditions: human, HepG2 cells; HepG2, 24 h
[2] = Cytotoxicity assay (Alamar blue), HEK293; type: cell-based; conditions: human, HEK293 cells; HEK293, 24 h
Protocol: (§1) Cell toxicity was determined using Alamar blue, as previously described (McMillian et al., 2002). COS-7 cells were seeded as 7000 cells per well in black wall clear bottom 96-well plates in DMEM medium (Life Technologies Australia) with 10% FBS. HepG2 and HEK293 cell lines, from ATCC, were seeded as 5000 cells per well in black wall clear bottom 384-well cell culture plates in DMEM with 1% FBS. Cells were cultured for 24 h at 37° C., 5% CO2. A serial dilution of compounds was added, with a final DMSO concentration adjusted to 0.5% v/v. Cells were incubated for another 24 h. 1 Triton X-100 was used as negative control, and 0.5% DMSO as positive control. 5 μM Alamar blue was added to each well and fluorescence was measured (λexc=560 nm, λem=590 nm) after 2 h incubation at 37° C. Data were analysed using Prism software.

SOX18-SOX18 homodimer = SOX18-SOX18 homodimer (Homo sapiens (Human), UniProt P35713); assay: ALPHAScreen SOX18-SOX18 homodimerization; type: binding; conditions: 5 uM
Protocol: (§2) ALPHAScreen was performed as previously described (Sierecki et al., 2014, Sierecki et al., 2013), using the cMyc detection kit and Proxiplate-384 Plus plates (PerkinElmer). The LTE lysate co-expressing the proteins of interest was diluted in buffer A (25 mM HEPES, 50 mM NaCl). For the assay, 12.5 μL (0.4 μg) of Anti-cMyc coated Acceptor Beads in buffer B (25 mM HEPES, 50 mM NaCl, 0.001% NP40, 0.001% casein) were aliquoted into each well. This was followed by the addition of 2 μL of diluted sample, at different concentration, and 2 μL of biotin labeled GFP-Nanotrap in buffer A. The plates were incubated for 45 min at room temperature, then adding 2 μL (0.4 μg) of streptavidin-coated Donor Beads diluted in buffer A, and incubation in the dark for 45 min at room temperature. The ALPHAScreen signal was measured on an Envision Plate Reader (PerkinElmer), using manufacturer's recommended settings (λexc=680/30 nm for 0.18 s, λem=570/100 nm after 37 ms). The resulting bell-shaped curve is an indication of a positive interaction, while a flat line reflects a lack of interaction between the proteins. The measurement of each protein pair was repeated in triplicate.
(§3) I is the highest signal level (top of the hook effect curve) and Ineg is the lowest (background) signal level. The signals were normalized to the Iref signal obtained for the strongest interaction. […] Percentage of interaction was calculated as: […]
(§4) The ALPHA-Screen Assay was performed as previously described (Sierecki et al. 2014), using the cMyc detection kit and Proxiplate-384 Plus plates (PerkinElmer). A serial dilution of each sample was measured. The LTE lysate co-expressing the proteins of interest was diluted in buffer A (25 mM HEPES, 50 mM NaCl). For the assay, 12.5 μL (0.4 μg) of Anti-cMyc coated Acceptor Beads in buffer B (25 mM HEPES, 50 mM NaCl, 0.001% NP40, casein) were aliquoted into each well. This was followed by the addition of 2 μL of diluted sample and 2 μL of biotin labeled GFP-Nanotrap in buffer A. The plate was incubated for 45 min at RT. Afterward, 2 μL (0.4 μg) of Streptavidin coated Donor Beads diluted in buffer A, were added, followed by incubation in the dark for 45 min at RT. The ALPHA-Screen signal was obtained on an Envision Multilabel Plate Reader (PerkinElmer), using the manufacturer's recommended settings (excitation: 680/30 nm for 0.18 s, emission: 570/100 nm after 37 ms). The resulting bell-shaped curve is an indication of a positive interaction, while a flat line reflects a lack of interaction between the proteins. The measurement of each protein pair was repeated a minimum of three times using separate plates. The Binding Index was calculated as: BI=[(I−I_neg)/(I_ref−I_neg)]×100
For PPI disruption assay, protein pairs expressed in LTE were incubated for 1 h with 100 μM Sm4 or DMSO alone (0.7% DMSO final). 100 μM Sm4 or DMSO was also added to buffer B. PPI disruption was calculated as: (1−I_Sm4/I_DMSO)×100.
For IC50 determination, the assay was identical but a dilution range of Sm4 was used (0.3 to 300 μM). Percentage of interaction was calculated as: I_Sm4/1 DMSO×100. Data from at least 3 independent experiments were fitted in GraphPad Prism (RRID: SCR_007370) version 6.0 using 3-parameter non-linear regression.

SOX18[109] HMG fragment = SOX18[109] HMG fragment (Mus musculus (Mouse), UniProt P43680); assay: FP DNA-binding competition assay, SOX18[109] HMG fragment; conditions: SOX18/DNA binding; for remaining activity at 50 µM: read-out: FP bound fraction (%) 50 μM; for remaining activity at 200 µM: read-out: FP bound fraction (%) 200 μM
Protocol: Mouse SOX HMG fragments. The HMG domains of mouse SOX2 (Group B), SOX11 (Group C), SOX6 (Group D), SOX9 (Group E), SOX18 (Group F) and SOX15 (Group G) were BP cloned from cDNA templates (IMAGE cDNA clone IDs: Sox18: 3967084; Sox9: 5354229; Sox4: 6822618) into a pDONRTM221 pENTRY vector, sequenced and recombined into a pETG20A or a pHisMBP expression plasmid using Gateway®LR Technology (Ng et al., 2012). Constructs were transformed into Escherichia coli BL21(DE3) cells (Luria-Bertani, 100 μg/ml Ampicillin).
The DNA-binding competition assay was performed in black 384-well plates, with mouse full length SOX18, or SOX-HMG fragments. All experiments were performed using a fluorescently-labelled Prox1-DNA element. Controls consisted of free labelled DNA (low FP milli-Polarization index, mP), labelled DNA in presence of protein (negative control, high mP), and labelled DNA and protein in presence of competing excess of unlabelled DNA (positive control, low mP)
The DNA-binding competition assay was performed in 25 uL, in black 384-well plates, using either 30 mM HEPES (N-2-Hydroxyethylpiperazine-N′-2-Ethanesulfonic Acid) (pH 7.5, with 100 mM KCl, 40 mM NaCl, 10 mM NH4OAc, […], 2 mM MgCl2, 0.5 mM EDTA, 0.01% NP-40) for mouse full length SOX18, or Tris-NaCl (10 mM Tris pH 8.0 and 100 mM NaCl) for SOX-HMG fragments. All experiments were performed using a 40 bp double-stranded Prox1-DNA element with 5′ fluorescein amidite (FAM) label (Sigma Proligo or InVitrogen). Optimum binding levels were obtained at 200 nM of mouse full length SOX18 and 60 nM of SOX-HMG fragment, in presence of 5 nM labelled DNA. Controls consisted of free labelled DNA (low FP milli-Polarization index, mP), labelled DNA in presence of protein (negative control, high mP), and labelled DNA and protein in presence of 400 time competing excess of unlabelled DNA (positive control, low mP). Depending on compound, final DMSO concentrations ranged from 2 to 3.33% v/v. After mixing protein, DNA probe and compound, plates were sealed and briskly agitated in the dark for 5 minutes at room temperature, 10 minutes at 37° C., and 30 minutes at room temperature, before reading fluorescence polarization on a Tecan M1000Pro (λexc=485 nm, λem=525 nm). All experiments were performed in triplicates.
In order to pinpoint the possible binding site of the small molecules, the FP assays were repeated with a shorter, DNA-binding centred protein fragment. The DNA binding domain of SOX TFs consists of the […] amino acid long High Mobility Group (HMG) box. The 109 amino-acid long SOX18 fragment (SOX18[109]) corresponds to residues 69-177 (numbering by mouse SOX18), which includes the HMG box (residues 78-149) and N- and C-terminal flanking sequences of 9 and 28 amino-acids, respectively.

HepG2 = assay: Cytotoxicity assay (Alamar blue), HepG2; type: cell-based; conditions: HepG2, 24 h
HEK293 = assay: Cytotoxicity assay (Alamar blue), HEK293; type: cell-based; conditions: HEK293, 24 h
Protocol: as §1

SOX18-RBPJ interaction = SOX18-RBPJ interaction (Homo sapiens (Human), UniProt P35713); assay: ALPHAScreen SOX18-RBPJ protein-protein interaction; type: binding; conditions: 5 μM
Text: Proteins were genetically encoded with enhanced GFP (GFP), mCherry and cMyc (myc) tags, and cloned into cell free expression Gateway destination vectors: N-terminal GFP tagged (pCellFree_G03), N-terminal Cherry-cMyc (pCellFree_G07) and C-terminal Cherry-cMyc tagged (pCellFree_G08) (Gagoski et al., 2015). Human RBPJ (BC020780) and MEF2C (BC026341) Open Reading Frames (ORFs) were sourced from the Human ORFeome collection, version 1.1 and 5.1, and the Human Orfeome collaboration OCAA collection (Open Biosystems), as previously described (Sierecki et al., 2013) and cloned at the ARVEC facility, UQ Diamantina Institute. The entry clones pDONOR223 or pENTR201 vectors were exchanged with the ccdB gene in the expression plasmid by LR recombination (Life Technologies, Australia). The full-length human SOX18 gene was synthesized and the transfer to vectors was realized using Gateway PCR cloning. Translation competent Leishmania tarentolae extract (LTE) was prepared as previously described (Kovtun et al., 2011, Mureev et al., 2009). Protein pairs were co-expressed by adding 30 nM of GFP template plasmid and 60 nM of Cherry template plasmid to LTE and incubating for 3 hours at 27° C.
ALPHAScreen was performed as previously described (Sierecki et al., 2014, Sierecki et al., 2013). […] Percentage of interaction was calculated as: (I_cpd/I_DMSO)×100 from 3 independent experiments.
as §2, §3
as §4, with “The measurement of each protein pair was repeated a minimum of three times using separate plates. The Binding Index was calculated as: BI=[(I−I_neg)/(I_ref−I_neg)]×100” left out

Sequence of SOX18[109] HMG fragment (P43680 69-177): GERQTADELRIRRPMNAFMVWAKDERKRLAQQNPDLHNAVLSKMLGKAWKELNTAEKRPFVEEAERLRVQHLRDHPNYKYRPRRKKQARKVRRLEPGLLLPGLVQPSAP
Sequence of SOX18-SOX18 homodimer (P35713 whole entry): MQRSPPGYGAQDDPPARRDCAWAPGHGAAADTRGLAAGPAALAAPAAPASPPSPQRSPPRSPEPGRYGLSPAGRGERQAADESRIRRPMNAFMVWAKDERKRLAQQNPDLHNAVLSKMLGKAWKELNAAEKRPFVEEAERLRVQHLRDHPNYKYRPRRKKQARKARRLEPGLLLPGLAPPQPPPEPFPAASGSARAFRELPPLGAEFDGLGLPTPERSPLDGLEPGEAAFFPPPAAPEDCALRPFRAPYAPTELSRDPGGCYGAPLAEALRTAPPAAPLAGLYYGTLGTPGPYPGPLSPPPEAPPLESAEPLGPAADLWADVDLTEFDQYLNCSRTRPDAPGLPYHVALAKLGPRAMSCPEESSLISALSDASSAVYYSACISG
Sequence of SOX18-RBPJ interaction (P35713 whole entry): as above

inhibitory activity in respect of SOX18-SOX18 homodimerization (SOX18-SOX18 homodimer) | remaining activity at 50 µM (SOX18[109] HMG fragment) | remaining activity at 200 µM (SOX18[109] HMG fragment) | SOX18-RBPJ protein-protein binding inhibition at 5 μM (SOX18-RBPJ interaction) | Molecule | CC50 at 24 h [1] | CC50 at 24 h [2] | CC50 (HepG2) | CC50 (HEK293) | FP bound fraction (%) 50 μM (SOX18[109] HMG fragment) | FP bound fraction (%) 200 μM (SOX18[109] HMG fragment)
some inhibitory activity | 97.7 ± 5.9% | 91.7 ± 2.1% | – | COc1cc(Cl)cc(/C=C/c2ccc3ccccc3c2)c1C(=O)O [Sm31, (E)-4-chloro-2-methoxy-6-(2-(naphthalen-2-yl)vinyl)benzoic acid] | > 100 µM | 92.7 µM | – | – | – | –
– | – | – | – | O=C(O)c1c(O)cc(Cl)cc1CCc1ccc2ccccc2c1 [Sm33, (E)-4-chloro-2-hydroxy-6-(2-(naphthalen-2-yl)ethyl)benzoic acid] | – | – | 34.5 µM | 33.4 µM | 50.1 ± 54.6% | 9.9 ± 2.3%
– | – | – | – | N,N-diethyl-2-methoxy-6-(2-(naphthalene-2-yl)vinyl)benzamide [Sm17] | – | – | 38.5 µM | 62.6 µM | 100.3 ± 6.0% | 117.0 ± 10.9%
some inhibitory activity | 98.2 ± 7.4% | 104 ± 10.4% | – | COc1cc(/C=C\c2ccccc2)cc(OC)c1OC [Sm37, (Z)-1,2,3-trimethoxy-5-styrylbenzene] | > 100 µM | > 100 µM | – | – | – | –
– | 98.7 ± 5% | 107 ± 21.3% | highly active | CCN(CC)C(=O)c1c(O)cccc1CCc1ccc2ccccc2c1 [Sm18, N,N-diethyl-2-hydroxy-6-(2-(naphthalen-2-yl)ethyl)benzamide] | 28 µM | 38.7 µM | – | – | – | –
– | – | – | – | COc1cc(O)c(C(=O)O)c(C=Cc2ccc3ccccc3c2)c1 (mixture of isomers) [Sm28, (E/Z)-2-hydroxy-4-methoxy-6-(2-(naphthalen-2-yl)vinyl)benzoic acid] | – | – | 78.9 µM | 65.1 µM | 76.3 ± 2.3% | 19.3 ± 8.4%

Molecule | inhibitory activity in respect of SOX18-SOX18 homodimerization (SOX18-SOX18 homodimer) | remaining activity at 50 µM (SOX18[109] HMG fragment) | remaining activity at 200 µM (SOX18[109] HMG fragment) | SOX18-RBPJ protein-protein binding inhibition at 5 μM (SOX18-RBPJ interaction) | CC50 at 24 h [1] | CC50 at 24 h [2] | CC50 (HepG2) | CC50 (HEK293) | FP bound fraction (%) 50 μM (SOX18[109] HMG fragment) | FP bound fraction (%) 200 μM (SOX18[109] HMG fragment)
COc1cc(/C=C\c2ccc3ccccc3c2)cc(OC)c1OC [Sm41, (Z)-2-(3,4,5-trimethoxystyryl)naphthalene] | some inhibitory activity | 100 ± 10% | 90.2 ± 46.1% | – | > 100 µM | > 100 µM | – | – | – | –
